Experimental data as given in patent publication US20250326739A1, “CD38 MODULATORS AND USES THEREOF” (Aeovian Pharmaceuticals, Inc., priority 2022, published 2025).

How the values were obtained:
[1] = molecular target: human CD38 (Homo sapiens (Human), UniProt P28907); assay: NAD+ cyclase activity assay with human recombinant CD38 protein; type: biochemical; details: 1.9 nM human CD38, 15.8 μM e-NAD substrate, fluorescence read-out
Description: (§1) Example 5: NAD^+ Cydase Activity Assay with Human or Mouse Recombinant CD38 Protein
(§2) The following assay was used to determine the ability of compounds of the invention to inhibit the hydrolysis of NAD^+ by the human or mouse enzyme, CD38.
(§3) Reaction buffer: 40 mM HEPES/NaOH pH 7.5, 250 mM sucrose, 0.01% Tween
(§4) Final concentrations: 0.6 nM mouse CD38 (4947-AC, Bio-Techne GmbH) 1.9 nM human CD38 (AVI2404, Bio-Techne GmbH)
(§5) Substrate: 15.8 μM Nicotinamide 1,N6-ethenoadenine dinucleotide (E-NAD)
(§6) Read-out: Fluorescence intensity (extinction 300 nm/emission 410 nm)
(§7) Required reaction buffer, required CD38 concentration in reaction buffer and required e-NAD concentration in reaction buffer were prepared. Thereafter, 8 μL of CD38 in reaction buffer were added to High Control and compound concentration wells in 384 well plate (Corning #4514, 384 well, nonbinding surface, low volume, round bottom) and 8 μL of reaction buffer to Low Control. Compound dilutions were transferred via pintool technology that transfers 42.5 nL compound dilutions (12-point dose-response with factor three dilutions in 100% DMSO) well-to-well. Plate was subsequently shaken for 15 s at 1450 rpm and sealed for incubation for 30 min at room temperature. Thereafter, 2 μL of e-NAD in reaction buffer were added with Integra Voyager. After shaking for 15 s at 1450 rpm, plate was sealed, and assay signal was measured continuously with PHERAstar® fluorescence intensity module (extinction 300 nm/emission 410 nm).
(§8) Dose-response curves were constructed using twelve-point factor three dilutions in triplicates per plate. High control (full enzyme activity) was set to assay signal of CD38 and e-NAD in presence of vehicle (DMSO) and Low control (full enzyme inhibition) was set to assay signal of e-NAD and vehicle (DMSO) in absence of CD38. For data analysis, fluorescent signal of traces corresponding to each compound concentration and High and Low control was monitored over time. Each run, High Control (full enzyme activity) was fitted to Linear equation via GraphPad Prism to determine CD38 activity from the slope and determine the time interval of linear phase of reaction to account for minor fluctuations. Thereafter, slopes of all compound concentrations were determined via fitting to same linear equation (GraphPad Prism) over the same time interval as determined for High control. Percentage inhibition was calculated via normalization to High and Low Control via the equation: %−inhibition=100*(1−((Sample−Low control)/(High control−Low control))) Half maximal inhibitory concentration (IC50) values are yielded from the inflection point of the corresponding curve by fitting of resulting percentage inhibition values to standard equation (4 Parameter Logistic Model or Sigmoidal Dose-Response Model) via Excel Fit. Unless otherwise stated, fitting of curves was fixed to 100%-inhibition and unlocked for 0%-inhibition.

[2] = molecular target: mouse CD38 (Mus musculus (Mouse), UniProt P56528); assay: NAD+ cyclase activity assay with mouse recombinant CD38 protein; type: biochemical; details: 0.6 nM mouse CD38, 15.8 μM e-NAD substrate, fluorescence read-out
Description: as §1, §2, §3, §4, §5, §6, §7, §8

human CD38, sequence (P28907 whole entry): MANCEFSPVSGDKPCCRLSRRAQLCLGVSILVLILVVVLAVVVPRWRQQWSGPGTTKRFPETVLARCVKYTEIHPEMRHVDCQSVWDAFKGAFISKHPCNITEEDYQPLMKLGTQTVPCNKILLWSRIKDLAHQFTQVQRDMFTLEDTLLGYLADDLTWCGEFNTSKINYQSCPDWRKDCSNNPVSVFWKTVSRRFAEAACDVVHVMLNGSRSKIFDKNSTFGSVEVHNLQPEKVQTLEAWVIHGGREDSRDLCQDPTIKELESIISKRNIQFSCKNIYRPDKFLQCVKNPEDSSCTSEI
mouse CD38, sequence (P56528 whole entry): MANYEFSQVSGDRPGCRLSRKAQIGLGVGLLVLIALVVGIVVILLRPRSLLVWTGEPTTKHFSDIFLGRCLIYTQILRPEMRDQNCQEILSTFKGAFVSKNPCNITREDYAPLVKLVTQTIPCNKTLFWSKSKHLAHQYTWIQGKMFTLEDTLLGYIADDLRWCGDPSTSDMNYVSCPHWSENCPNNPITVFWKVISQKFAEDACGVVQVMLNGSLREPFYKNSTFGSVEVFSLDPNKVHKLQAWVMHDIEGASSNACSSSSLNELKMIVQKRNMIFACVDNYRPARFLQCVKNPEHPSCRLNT

IC50 [1] [nM] | IC50 [2] [nM] | SMILES
< 30 | < 1 | Cc1cc(C(=O)N[C@@H]2CCCOC2)nc(-n2ccnc2)n1 [Compound 69A, (R)-2-(1H-Imidazol-1-yl)-6-methyl-N-(tetrahydro-2H-pyran-3-yl)pyrimidine-4-carboxamide]
30 to 100 | 1 to 10 | Cc1cc(C(=O)N[C@H]2COCCC2(F)F)nc(-n2ccnc2)c1 [Compound 70A, (S)—N-(4,4-Difluorotetrahydro-2H-pyran-3-yl)-6-(1H-imidazol-1-yl)-4-methylpicolinamide]
30 to 100 | < 1 | Cc1cc(C(=O)N[C@@H]2COCCC2(F)F)nc(-n2ccnc2)c1 [Compound 71A, (R)—N-(4,4-Difluorotetrahydro-2H-pyran-3-yl)-6-(1H-imidazol-1-yl)-4-methylpicolinamide]
< 30 | < 1 | Cc1cc(C(=O)NC2CCN(S(=O)(=O)C3CCOC3)CC2)nc(-n2ccnc2)c1 (centres unmarked) [Compound 72A, 6-(1H-Imidazol-1-yl)-4-methyl-N-(1-((tetrahydrofuran-3-yl)sulfonyl)piperidin-4-yl)picolinamide]
< 30 | 1 to 10 | CS(=O)(=O)N1CCC(NC(=O)c2ccnc(-n3ccnc3)n2)CC1 [Compound 73A, 2-(1H-Imidazol-1-yl)-N-(1-(methylsulfonyl)piperidin-4-yl)pyrimidine-4-carboxamide]
< 30 | 1 to 10 | O=C(N[C@@H]1CCS(=O)(=O)C1)c1ccnc(-n2ccnc2)n1 [Compound 74A, (R)—N-(1,1-Dioxidotetrahydrothiophen-3-yl)-2-(1H-imidazol-1-yl)pyrimidine-4-carboxamide]
30 to 100 | 1 to 10 | CS(=O)(=O)N1CCC(NC(=O)c2cc(C(F)(F)F)nc(-n3ccnc3)n2)CC1 [Compound 75A, 2-(1H-Imidazol-1-yl)-N-(1-(methylsulfonyl)piperidin-4-yl)-6-(trifluoromethyl)pyrimidine-4-carboxamide]
30 to 100 | 1 to 10 | O=C(N[C@@H]1CCCOC1)c1cc(C(F)(F)F)nc(-n2ccnc2)n1 [Compound 76A, (R)-2-(1H-Imidazol-1-yl)-N-(tetrahydro-2H-pyran-3-yl)-6-(trifluoromethyl)pyrimidine-4-carboxamide]
30 to 100 | 1 to 10 | O=C(N[C@@H]1CCS(=O)(=O)C1)c1cc(C(F)(F)F)nc(-n2ccnc2)n1 [Compound 77A, (R)—N-(1,1-Dioxidotetrahydrothiophen-3-yl)-2-(1H-imidazol-1-yl)-6-(trifluoromethyl)pyrimidine-4-carboxamide]
< 30 | 1 to 10 | O=C(N[C@@H]1CCS(=O)(=O)C1)c1cc(C(F)(F)F)cc(-n2ccnc2)n1 [Compound 78A, (R)—N-(1,1-Dioxidotetrahydrothiophen-3-yl)-6-(1H-imidazol-1-yl)-4-(trifluoromethyl)picolinamide]
100 to 1000 | 10 to 100 | Cc1ccc(-n2ccnc2)nc1C(=O)NC1CCN(S(C)(=O)=O)CC1 [Compound 79A, 6-(1H-Imidazol-1-yl)-3-methyl-N-(1-(methylsulfonyl)piperidin-4-yl)picolinamide]
< 30 | 1 to 10 | O=C(N[C@@H]1CCCOC1)c1ccnc(-n2ccnc2)n1 [Compound 80A, (R)-2-(1H-Imidazol-1-yl)-N-(tetrahydro-2H-pyran-3-yl)pyrimidine-4-carboxamide]
100 to 1000 | 10 to 100 | Cc1ccc(-n2ccnc2)nc1C(=O)N[C@@H]1CCCOC1 [Compound 81A, (R)-6-(1H-Imidazol-1-yl)-3-methyl-N-(tetrahydro-2H-pyran-3-yl)picolinamide]
< 30 | 1 to 10 | CS(=O)(=O)N1CCC(NC(=O)c2cc(C(F)(F)F)cc(-n3ccnc3)n2)CC1 [Compound 82A, 6-(1H-Imidazol-1-yl)-N-(1-(methylsulfonyl)piperidin-4-yl)-4-(trifluoromethyl)picolinamide]
> 1000 | 10 to 100 | Cc1cc(C(=O)N[C@@H]2CCCN(C3COC3)C2)nc(-n2ccnc2)c1 [Compound 83A, (R)-6-(1H-Imidazol-1-yl)-4-methyl-N-(1-(oxetan-3-yl)piperidin-3-yl)picolinamide]
100 to 1000 | 10 to 100 | Cc1cc(C(=O)N[C@H]2CCCS(=O)(=O)C2)nc(-n2ccnc2)c1 [Compound 84A, (S)—N-(1,1-Dioxidotetrahydro-2H-thiopyran-3-yl)-6-(1H-imidazol-1-yl)-4-methylpicolinamide]
100 to 1000 | 10 to 100 | Cc1cc(C(=O)N[C@H]2CCCN(C)C2=O)nc(-n2ccnc2)c1 [Compound 85A, (S)-6-(1H-Imidazol-1-yl)-4-methyl-N-(1-methyl-2-oxopiperidin-3-yl)picolinamide]
< 30 | 1 to 10 | Cc1cc(C(=O)N[C@@H]2CCS(=O)(=O)C2)nc(-n2ccnc2)c1 [Compound 86A, (R)—N-(1,1-Dioxidotetrahydrothiophen-3-yl)-6-(1H-imidazol-1-yl)-4-methylpicolinamide]
< 30 | 1 to 10 | Cc1cc(C(=O)NC2CCN(S(=O)(=O)C3COC3)CC2)nc(-n2ccnc2)c1 [Compound 87A, 6-(1H-Imidazol-1-yl)-4-methyl-N-(1-(oxetan-3-ylsulfonyl)piperidin-4-yl)picolinamide]
